“Also recorded” adds a separate entry of the source. Like-named read-outs stand apart in the source and are kept apart here.

Data on 20 compounds can be found in patent US20110176998A1, “IMAGING AND THERAPY OF VIRUS-ASSOCIATED TUMORS” (THE JOHNS HOPKINS UNIVERSITY, priority 2007, published 2011).

Data set [1] relates to Zta promoter. Type of data set: cell-based, Epstein-Barr virus. The following applies: for known lytic inducer re-identified / hit in epithelial promoter reporter assay: library screen at 10 uM. (In general: Reporter assays use an easily measured gene product as a stand-in for the process of interest.)
In data set [2] the test system is recombinant EBV encoding GFP (BX-1) in AKATA-BX1 cells. The experiment in a line: GFP whole virus assay in AKATA-BX1 cells.
The test system of data set [3] is BZLF1 protein (ZTA). The experiment in a line: Western blot / immunoblot for ZTA (BZLF1 protein) in EBV positive cell lines. The conditions noted are these: for BZLF protein expression: SNU719, AKATA, Raji, LCL and Rael cells. Type of data set: cell-based, Epstein-Barr virus. The method, then:
To detect expression of the EBV-TK or EBV-ZTA, total cell protein was first extracted by treating cells with lysis buffer (0.05 M Tris, pH 7.6, 0.15 M NaCl, 1% triton-X 100, 2 mM EDTA) containing protease inhibitors for 10 minutes at 4° C. The following reagents were added to 1 mL of lysis buffer: 2 μL leupeptin (5 mg/mL), 1 μL 0.2 M Na3VO4, 1 μL NaF, 1 μL aprotinin (10 mg/ml), 1 μL, pepstatin (2 mM), and 10 μL PMSF (100 mM) for 10 minutes at 4° C. Following centrifugation, the supernatant was collected and stored at −80° C. Protein concentration was determined with the BCA Protein Assay Kit (Pierce, Rockford, Ill.) according to the manufacturer's instructions. A 10 μg aliquot of total cellular protein was fractionated on a 7.5% SDS-polyacrylamide gel. Proteins were transferred to PROTRAN nitrocellulose membrane (Schleicher & Schuell, Keene, N.H.). The membranes were blocked with 5% blotting grade non-fat dry milk (Bio-rad, Hercules, Calif.) in PBS with 0.1% TWEEN-20 (PBS-T) at 4° C. overnight. The membranes were then washed with PBS-T twice followed by incubation with 1/1,000-diluted rabbit anti-TK sera from a rabbit immunized with a synthetic EBV-TK peptide ([…]) or anti-ZTA monoclonal antibody (Argene, North Massapequa, N.Y.) at room temperature for 1 hour. After washing, the membranes were incubated with HRP-conjugated goat anti-rabbit IgG antibodies or HRP-conjugated goat anti-mouse IgG antibodies (Amersham Pharmacia Biotech, Piscataway, N.J.) at a 1/5,000 dilution in PBS-T at room temperature for 1 hour. The membranes were washed twice and proteins were detected with ECL Western Blotting Detection reagents (Amersham Pharmacia Biotech). The membranes were exposed to X-OMAT film (Kodak, Rochester, N.Y.) at room temperature.
For lytic induction studies, cells were seeded at 10^6/ml, and treated with test compounds for 48 hours. Control untreated cells were incubated in parallel.
Cells were washed with PBS twice. Total cellular protein was extracted with lysis buffer. Proteins were electrophoresed in polyacrylamide and then transferred onto a PROTRAN nitrocellulose membrane (Schleicher&Schuell, Keene, N.H.). Blots were probed with primary antibody (Ab) overnight at 4° C. HRP-conjugated secondary Ab was added after washing and detected by an enhanced chemiluminescence system (ECL) (Amersham). The following antibodies were used: anti-ZTA (Argene), anti-f3-actin (Sigma), anti-mouse (Sigma).
(In general: A western blot detects proteins with antibodies after separation by electrophoresis.)

For data set [4], the system named is EBV viral DNA copy number. The experiment in a line: real-time PCR for EBV viral DNA copy number (viral replication). Type of data set: cell-based, Epstein-Barr virus. The following applies: for lytic protein expression or viral replication: B cells or gastric epithelial cells (SNU 719). The method, then:
Genomic DNA from treated cells were extracted with the QIAamp DNA mini kit (Qiagen, CA) according to the manufacturer's instructions. PCRs were set up in a volume of 50 μL with a TaqMan PCR core reagent kit (Perkin-Elmer Corp., Branchburg, N.J.). Fluorescent probes were custom synthesized by Perkin-Elmer Applied Biosystems. PCR primers were synthesized by Gibco BRL (Frederick, Md.). Each reaction contained 5 μL of 10× buffer A (4 mM MgCl2), amplification primers (300 nM), fluorescent probe (25 nM), dATP, dCTP, and dGTP (200 μM each), dUTP (400 uM), 1.25 U of AmpliTaq Gold, and 0.5 U of AmpErase uracil N-glycosylase. Extracted genomic DNA was used for amplification. DNA amplification was carried out in a 96-well reaction plate in a Perkin-Elmer Applied Biosystems 7700 sequence detector. Each sample was analyzed in duplicate, and multiple negative water blanks were included in each analysis. A calibration curve was run in parallel and in duplicate with each analysis, with DNA extracted from the EBV-positive cell line Namalwa as a standard.
The EBV genome was quantified by real-time PCR with the ICycler system (Biorad, Hercules, Calif.). Template DNA was extracted with a mini blood DNA Kit (Qiagen, Valencia, Calif.). […]. A calibration curve was run in parallel and in duplicate with each analysis, using DNA extracted from the diploid EBV-positive cell line Namalwa containing two integrated viral genomes per cell as a standard. Amplification data were collected with an MyiQ single color real-time PCR Detector (Biorad) and analyzed with the MyiQ software developed by Biorad.

The subject of data set [5] is EBV-TK functional activity in Burkitt's lymphoma cell lines. The experiment in a line: in vitro [14C]FIAU cell uptake after bortezomib. Type of data set: cell-based, Epstein-Barr virus. Here is the method:
For in vitro [^14C]FIAU uptake studies, cells were seeded at 5×10^5 cells/mL and incubated with 10 nM bortezomib at 37° C. for 6-12 hrs. They were washed and then incubated with 0.04 μCi/mL [^14C]FIAU at 37° C. for 2, 4, 8, 24, 48, 72 hours. Cells were pelleted by centrifugation and washed with unlabeled FIAU. Radioactivity of the isolated cells and pooled medium with washes were then counted separately by scintillation counting with a Beckman Coulter LS5000TA scintillation counter (Fullerton, Calif.). Total cellular protein was extracted by incubating in lysis buffer (0.05 M Tris, pH 7.6, 0.15 M NaCl, 1% triton-X 100, 2 mM EDTA) and cell debris were removed by centrifugation. The supernatant was collected and the protein concentration was determined with the BCA protein assay kit (Pierce, Rockford, Ill.) according to the manufacturer's instructions. Cell uptake was expressed as the accumulation ratio, that is, the counts per minute per gram (cpm/g) of cells divided by the cpm/g (mL) of medium.

Data set [6] deals with CMV promoter driven GFP in Hela cells.
For data set [7] the following is noted: administered to patients for imaging; cited from earlier work.

With `CC(=O)O[C@H]1C(=O)[C@@]2(C)[C@H]([C@H](OC(=O)c3ccccc3)[C@]3(O)C[C@H](OC(=O)[C@H](O)[C@@H](NC(=O)c4ccccc4)c4ccccc4)C(C)=C1C3(C)C)[C@]1(OC(C)=O)CO[C@@H]1C[C@@H]2O` [Taxol], the “known lytic inducer re-identified / hit in epithelial promoter reporter assay” value in data set [1] is recorded as “verified”. Turning to Arginine butyrate, the “known lytic inducer re-identified / hit in lymphoma cell line/whole virus assay” value in data set [2] (library screen at 10 uM) was “missed”. The “known lytic inducer re-identified / hit in epithelial promoter reporter assay” value in data set [1] is given as “missed”. Take `CCCC(=O)O` [butyrate]: in data set [1] (AGS cells), the “Zta promoter luciferase activity” value is on record as “activated”. For `CCCCCCCCCCCCCC(=O)O[C@@H]1[C@@H](C)[C@@]2(O)[C@@H](C=C(CO)C[C@]3(O)C(=O)C(C)=C[C@@H]23)[C@@H]2C(C)(C)[C@]12OC(C)=O` [PMA], in data set [2] (library screen at 10 uM), the “known lytic inducer re-identified / hit in lymphoma cell line/whole virus assay” value was “verified”. Moreover, the “known lytic inducer re-identified / hit in epithelial promoter reporter assay” value in data set [1] is on record as “verified”. For the compound `CC(C)[C@H](CO)Nc1nc(Nc2cccc(Cl)c2)c2ncn(C(C)C)c2n1` [Purvalanol A], in data set [2] (AKATA-BX1 cells induced with anti-IgG), the “inhibition of GFP signal after lytic induction” value is “specifically inhibited”. Besides, in data set [3] (AKATA-BX1, anti-IgG induction), the “inhibition of EBV immediate early gene ZTA expression” value is “inhibited”. Consider `CC(C(=O)O)c1ccc(N2Cc3ccccc3C2=O)cc1` (centres unmarked) [Indoprofen], for which, in data set [3] (SNU719 cells, high dose), the ZTA expression entry was “induced”. Besides, the “induction of BZLF1 promoter” value in data set [1] (AGS cells, 10 μM) is on record as “can induce”. Also, in data set [4] (SNU719 cells), the EBV viral replication entry is given as “not viral replication; also recorded: did not induce”. With `CCCC(CCC)C(=O)O` [valproate], the “Zta promoter luciferase activity” value is listed as “activated” in data set [1] (AGS cells) and “increased expression of luciferase in a dose-dependent manner” in data set [1] (AGS cells, listed as valproic acid). As for `O=c1[nH][14c](=O)n([C@@H]2O[C@H](CO)[C@@H](O)[C@@H]2F)cc1I` [[^14C]FIAU, [2-^14C]2′-Fluoro-2′-deoxy-β-D-5-iodouracil-arabinofuranoside], the “accumulation of [14C]FIAU” value in data set [5] (EBV(+) Akata and EBV(+) Rael cells following treatment with bortezomib) is “increased”; in data set [5] (EBV(−) Akata cells following treatment with bortezomib), “not”.

With `CN(Cc1cnc2nc(N)nc(N)c2n1)c1ccc(C(=O)N[C@@H](CCC(=O)O)C(=O)O)cc1` [Methotrexate], the “known lytic inducer re-identified / hit in epithelial promoter reporter assay” value in data set [1] is “verified”. On to `[Cl][Co][Cl]` [Cobalt chloride], for which the “known lytic inducer re-identified / hit in lymphoma cell line/whole virus assay” value in data set [2] (library screen at 10 uM) is listed as “missed”. Also, the “known lytic inducer re-identified / hit in epithelial promoter reporter assay” value in data set [1] is listed as “missed”. `CCCCCCCCCCCCCC(=O)O[C@@H]1[C@@H](C)[C@@]2(O)[C@@H](C=C(CO)C[C@]3(O)C(=O)C(C)=C[C@@H]23)[C@@H]2C(C)(C)[C@]12OC(C)=O` [TPA, phorbol 12-tetradecanoate 13-acetate]: the “GFP signal in control cell line” value in data set [6] is “not activated”. Besides, the “Zta promoter luciferase activity” value in data set [1] (AGS cells) is on record as “activated”. For `O=c1[nH]cc(F)c(=O)[nH]1` [5-FU], the “known lytic inducer re-identified / hit in epithelial promoter reporter assay” value in data set [1] is given as “verified”. Take `N.N.[Cl][Pt][Cl]` [cis-platinum]: the “known lytic inducer re-identified / hit in epithelial promoter reporter assay” value in data set [1] is “verified”. As for `CCCC(=O)[O-].[Na+]` [Sodium butyrate], the “known lytic inducer re-identified / hit in lymphoma cell line/whole virus assay” value in data set [2] (library screen at 10 uM) is listed as “missed”. For the same compound, the “known lytic inducer re-identified / hit in epithelial promoter reporter assay” value in data set [1] was “missed”. With `COc1ccc(C=CC(=O)Nc2ccccc2C(=O)O)cc1OC` [Tranilast, N-(3,4-dimethoxycinnamoyl)anthranilic acid], the BZLF protein expression entry in data set [3] was “did not induce”. The “lytic protein expression or viral replication” value in data set [4] is “don't induce”.

For `COc1cccc2c1C(=O)c1c(O)c3c(c(O)c1C2=O)C[C@@](O)(C(=O)CO)C[C@@H]3O[C@H]1C[C@H](N)[C@H](O)[C@H](C)O1` [Doxorubicin], the “known lytic inducer re-identified / hit in lymphoma cell line/whole virus assay” value in data set [2] (library screen at 10 uM) was “verified”. In data set [1], the “known lytic inducer re-identified / hit in epithelial promoter reporter assay” value is “verified”.

Consider `CC[C@H](C)C(=O)O[C@H]1C[C@@H](C)C=C2C=C[C@H](C)[C@H](CC[C@@H]3C[C@@H](O)CC(=O)O3)[C@H]21` [lovastatin], for which the “suppression hits in GFP whole virus assay” value in data set [2] (library screen at 10 uM, picked after day 10) is “suppression hits”. On to `O=c1[nH]c(=O)n([C@@H]2O[C@H](CO)[C@@H](O)[C@@H]2F)cc1[125I]` [[^124I]FIAU, 2′-fluoro-2′deoxy-1-beta-D-arabinofuranosyl-5-iodo-uracil], for which the “effect on hepatic function” value in data set [7] is recorded as “without any adverse effect on hepatic function”. Regarding `Nc1ncn([C@H]2C[C@H](O)[C@@H](CO)O2)c(=O)n1` [5′-azadeoxycytidine, 5-Aza-2′-deoxycytidine], the “GFP signal in control cell line” value in data set [6] is reported as “not activated”. For the same compound, in data set [2] (AKATA-BX1 cells), the GFP signal entry is given as “induced”. For the same compound, the “Zta promoter luciferase activity” value in data set [1] (AGS cells) is listed as “did not activate; also recorded: not activated”. As for `Cc1oncc1C(=O)Nc1ccc(C(F)(F)F)cc1` [Leflunomide, N-(4′-trifluoromethylphenyl)-5-methylisoxazole-4-carboxamide], the BZLF protein expression entry in data set [3] is reported as “did not induce”. For the same compound, the “lytic protein expression or viral replication” value in data set [4] is “don't induce”.
